Measurements as given in ChEMBL document CHEMBL3044877, “Synthesis and crystal structure of chalcones as well as on cytotoxicity and antibacterial properties” (Med Chem Res, 2012).
Values after ≈ are worked out from the molar mass of the structure shown.

Legend:
HT-29 = assay: Cytotoxicity against Homo sapiens (human) HT-29 cells after 72 hr by MTT assay; assay type: functional, cell-based
SGC-7901 = assay: Cytotoxicity against Homo sapiens (human) SGC7901 cells after 72 hr by MTT assay; assay type: functional, cell-based
[1] = tested on: Staphylococcus epidermidis; assay: Antibacterial activity against multidrug-resistant Staphylococcus epidermidis 620206; assay type: functional
Enterococcus faecalis = assay: Antibacterial activity against multidrug-resistant Enterococcus faecalis 609230; assay type: functional
Staphylococcus aureus [2] = assay: Antibacterial activity against multidrug-resistant Staphylococcus aureus 701230; assay type: functional
Staphylococcus aureus [3] = assay: Antibacterial activity against multidrug-resistant Staphylococcus aureus 701219; assay type: functional
Enterococcus faecium = assay: Antibacterial activity against multidrug-resistant Enterococcus faecium 609205; assay type: functional
[4] = tested on: Staphylococcus epidermidis; assay: Antibacterial activity against multidrug-resistant Staphylococcus epidermidis 619083; assay type: functional
Staphylococcus aureus [5] = assay: Antibacterial activity against multidrug-resistant Staphylococcus aureus ATCC 25923; assay type: functional
Klebsiella pneumoniae [6] = assay: Antibacterial activity against multidrug-resistant Klebsiella pneumoniae 626511; assay type: functional
Escherichia coli [7] = assay: Antibacterial activity against multidrug-resistant Escherichia coli 629119; assay type: functional
Klebsiella pneumoniae [8] = assay: Antibacterial activity against multidrug-resistant Klebsiella pneumoniae 626238; assay type: functional
Pseudomonas aeruginosa [9] = assay: Antibacterial activity against multidrug-resistant Pseudomonas aeruginosa 630266; assay type: functional
Acinetobacter baumannii [10] = assay: Antibacterial activity against multidrug-resistant Acinetobacter baumannii B-8 303211; assay type: functional
Pseudomonas aeruginosa [11] = assay: Antibacterial activity against multidrug-resistant Pseudomonas aeruginosa 710218; assay type: functional
Escherichia coli [12] = assay: Antibacterial activity against multidrug-resistant Escherichia coli 629247; assay type: functional
Acinetobacter baumannii [13] = assay: Antibacterial activity against multidrug-resistant Acinetobacter baumannii B-5 302234; assay type: functional
Staphylococcus aureus [14] = assay: Antibacterial activity against Staphylococcus aureus after 24 hr; assay type: functional
[15] = Homo sapiens, HT-29, 72 h, read-out: IC50
[16] = Homo sapiens, SGC-7901, 72 h, read-out: IC50

## COc1ccc(C(=O)/C=C/c2ccccc2C(F)(F)F)cc1
HT-29; [15]
  IC50: 36.4 µM

## COc1ccc(C(=O)/C=C/c2ccc(Cl)cc2Cl)cc1
HT-29; [15]
  IC50: 18.9 µM
SGC-7901; [16]
  IC50: 12.6 µM

## COc1ccc(C(=O)/C=C/c2ccc(F)cc2F)cc1
HT-29; [15]
  IC50: 11.1 µM
SGC-7901; [16]
  IC50: 48.4 µM

## COc1ccc(/C=C/C(=O)c2ccccc2O)c(OC)c1
HT-29; ht-29
  IC50: Not Active
SGC-7901; sgc-7901
  IC50: Not Active

## COc1ccc(/C=C/C(=O)c2ccccc2)c(OC)c1
HT-29; [15]
  IC50: 131 µM

## O=C(/C=C/c1ccccc1C(F)(F)F)c1ccccc1
HT-29; [15]
  IC50: 42.9 µM
SGC-7901; [16]
  IC50: 40.3 µM

## COc1ccc(C(=O)/C=C/c2ccccc2Cl)cc1OC
HT-29; [15]
  IC50: 15.5 µM
SGC-7901; [16]
  IC50: 24.7 µM

## COc1ccc(C(=O)/C=C/c2cccc(OC)c2OC)cc1
HT-29; [15]
  IC50: 41.7 µM
SGC-7901; [16]
  IC50: 13.1 µM

## COc1ccc(C(=O)/C=C/c2ccccc2Br)cc1OC
HT-29; [15]
  IC50: 14 µM
SGC-7901; [16]
  IC50: 21.4 µM

## COc1ccc(/C=C/C(=O)c2cc(F)cc(F)c2)c(OC)c1
HT-29; ht-29
  IC50: Not Active
SGC-7901; [16]
  IC50: 55.5 µM

## COc1ccc(C(=O)/C=C/c2ccccc2OC)cc1
SGC-7901; sgc-7901
  IC50: Not Active

## COc1ccccc1/C=C/C(=O)c1cc(F)cc(F)c1
HT-29; [15]
  IC50: 53.2 µM
SGC-7901; [16]
  IC50: 75.4 µM

## Nc1ccc(C(=O)/C=C/c2ccccc2C(F)(F)F)cc1
SGC-7901; [16]
  IC50: 15.7 µM

## COc1ccc(C(=O)/C=C/c2ccccc2Br)cc1
HT-29; [15]
  IC50: 25.7 µM
SGC-7901; [16]
  IC50: 20 µM

## COc1ccc(C(=O)/C=C/c2ccc(Cl)cc2Cl)cc1OC
HT-29; [15]
  IC50: 18.7 µM
SGC-7901; [16]
  IC50: 60.5 µM

## COc1ccc(C(=O)/C=C/c2cccc(OC)c2OC)cc1OC
HT-29; [15]
  IC50: 35.9 µM
SGC-7901; [16]
  IC50: 70.7 µM

## Nc1ccc(C(=O)/C=C/c2ccc(Cl)cc2Cl)cc1
HT-29; [15]
  IC50: 40 µM
SGC-7901; [16]
  IC50: 87.7 µM

## O=C(/C=C/c1ccc(Cl)cc1Cl)c1ccccc1O
HT-29; [15]
  IC50: 42.4 µM

## CN(C)c1ccc(/C=C/C(=O)c2cccc(N)c2)cc1
HT-29; ht-29
  IC50: Not Active

## CN(C)c1ccc(/C=C/C(=O)c2cc(F)cc(F)c2)cc1
HT-29; ht-29
  IC50: Not Active
SGC-7901; sgc-7901
  IC50: Not Active

## Nc1ccc(C(=O)/C=C/c2ccccc2Cl)cc1
HT-29; [15]
  IC50: 26.2 µM
SGC-7901; [16]
  IC50: 11.2 µM

## COc1ccc(/C=C/C(=O)c2ccc(N)cc2)c(Cl)c1
[1]
  MIC: > 1000 µg/mL
Enterococcus faecalis
  MIC: 537 µg/mL (≈ 1870 µM)
Staphylococcus aureus [2]
  MIC: 537 µg/mL (≈ 1870 µM)
Staphylococcus aureus [3]
  MIC: > 1000 µg/mL
Enterococcus faecium
  MIC: > 1000 µg/mL
HT-29; [15]
  IC50: 55.7 µM
[4]
  MIC: > 1000 µg/mL
Staphylococcus aureus [5]
  MIC: 537 µg/mL (≈ 1870 µM)
SGC-7901; [16]
  IC50: 20.2 µM

## COc1ccc(/C=C/C(=O)c2cccc(N)c2)c(Cl)c1
HT-29; [15]
  IC50: 42.8 µM
SGC-7901; [16]
  IC50: 53.8 µM

## COc1ccc(C(=O)/C=C/c2ccc(OC)cc2Cl)cc1
HT-29; [15]
  IC50: 49.1 µM
SGC-7901; [16]
  IC50: 19.2 µM

## COc1ccc(/C=C/C(=O)c2ccccc2O)c(Cl)c1
HT-29; [15]
  IC50: 59.5 µM
SGC-7901; [16]
  IC50: 62.1 µM

## COc1ccc(/C=C/C(=O)c2cc(F)cc(F)c2)cc1
HT-29; [15]
  IC50: 101 µM
SGC-7901; sgc-7901
  IC50: Not Active

## Nc1ccc(C(=O)/C=C/c2ccccc2F)cc1
HT-29; [15]
  IC50: 47.8 µM
SGC-7901; [16]
  IC50: 7.44 µM

## COc1ccc(C(=O)/C=C/c2ccc(N(C)C)cc2)cc1OC
HT-29; [15]
  IC50: 49.8 µM
SGC-7901; sgc-7901
  IC50: Not Active

## COc1ccc(C(=O)/C=C/c2ccc(O)cc2)cc1
Klebsiella pneumoniae [6]
  MIC: > 1000 µg/mL
[1]
  MIC: 81 µg/mL (≈ 319 µM)
Enterococcus faecalis
  MIC: 81 µg/mL (≈ 319 µM)
Escherichia coli [7]
  MIC: 548 µg/mL (≈ 2160 µM)
Staphylococcus aureus [2]
  MIC: 81 µg/mL (≈ 319 µM)
Staphylococcus aureus [3]
  MIC: 81 µg/mL (≈ 319 µM)
Klebsiella pneumoniae [8]
  MIC: > 1000 µg/mL
Enterococcus faecium
  MIC: > 1000 µg/mL
HT-29; [15]
  IC50: 18.6 µM
[4]
  MIC: 20 µg/mL (≈ 78.7 µM)
Staphylococcus aureus [5]
  MIC: 40 µg/mL (≈ 157 µM)
Pseudomonas aeruginosa [9]
  MIC: > 1000 µg/mL
SGC-7901; [16]
  IC50: 14.7 µM
Acinetobacter baumannii [10]
  MIC: 548 µg/mL (≈ 2160 µM)
Pseudomonas aeruginosa [11]
  MIC: > 1000 µg/mL
Escherichia coli [12]
  MIC: 548 µg/mL (≈ 2160 µM)
Acinetobacter baumannii [13]
  MIC: 548 µg/mL (≈ 2160 µM)

## COc1ccc(/C=C/C(=O)c2ccc(OC)c(OC)c2)cc1
HT-29; [15]
  IC50: 54.6 µM
SGC-7901; [16]
  IC50: 102 µM

## COc1ccc(/C=C/C(=O)c2ccc(N)cc2)c(OC)c1
HT-29; ht-29
  IC50: Not Active
SGC-7901; sgc-7901
  IC50: Not Active

## COc1ccc(/C=C/C(=O)c2ccc(OC)c(OC)c2)c(OC)c1
HT-29; [15]
  IC50: 65.5 µM
SGC-7901; sgc-7901
  IC50: Not Active

## COc1ccc(C(=O)/C=C/c2ccccc2F)cc1
HT-29; [15]
  IC50: 18.9 µM
SGC-7901; [16]
  IC50: 21.2 µM

## O=C(/C=C/c1ccc(O)cc1)c1ccccc1 [4-HYDROXYCHALCONE]
Klebsiella pneumoniae [6]
  MIC: > 1000 µg/mL
[1]
  MIC: 158 µg/mL (≈ 705 µM)
Enterococcus faecalis
  MIC: 158 µg/mL (≈ 705 µM)
Escherichia coli [7]
  MIC: 158 µg/mL (≈ 705 µM)
Staphylococcus aureus [2]
  MIC: 158 µg/mL (≈ 705 µM)
Staphylococcus aureus [3]
  MIC: 158 µg/mL (≈ 705 µM)
Klebsiella pneumoniae [8]
  MIC: > 1000 µg/mL
Enterococcus faecium
  MIC: 315 µg/mL (≈ 1400 µM)
HT-29; [15]
  IC50: 24.6 µM
[4]
  MIC: 158 µg/mL (≈ 705 µM)
Staphylococcus aureus [14]
  MIC: 125 µg/mL (≈ 557 µM)
Staphylococcus aureus [5]
  MIC: 158 µg/mL (≈ 705 µM)
Pseudomonas aeruginosa [9]
  MIC: > 1000 µg/mL
SGC-7901; [16]
  IC50: 13.7 µM
Acinetobacter baumannii [10]
  MIC: 158 µg/mL (≈ 705 µM)
Pseudomonas aeruginosa [11]
  MIC: 158 µg/mL (≈ 705 µM)
Escherichia coli [12]
  MIC: 158 µg/mL (≈ 705 µM)
Acinetobacter baumannii [13]
  MIC: 158 µg/mL (≈ 705 µM)

## O=c1[nH]cc(F)c(=O)[nH]1 [FLUOROURACIL]
HT-29; [15]
  IC50: 9.72 µM
SGC-7901; Homo sapiens, SGC-7901, 72 h
  IC50: 29.2 µM

## C[C@H]1COc2c(N3CCN(C)CC3)c(F)cc3c(=O)c(C(=O)O)cn1c23.C[C@H]1COc2c(N3CCN(C)CC3)c(F)cc3c(=O)c(C(=O)O)cn1c23.O [LEVOFLOXACIN]
Klebsiella pneumoniae [6]
  MIC: 125 µg/mL
[1]
  MIC: > 1000 µg/mL
Enterococcus faecalis
  MIC: > 1000 µg/mL
Escherichia coli [7]
  MIC: > 1000 µg/mL
Staphylococcus aureus [2]
  MIC: 12.5 µg/mL
Staphylococcus aureus [3]
  MIC: 100 µg/mL
Klebsiella pneumoniae [8]
  MIC: > 1000 µg/mL
Enterococcus faecium
  MIC: > 1000 µg/mL
[4]
  MIC: 125 µg/mL
Staphylococcus aureus [5]
  MIC: 12.5 µg/mL
Pseudomonas aeruginosa [9]
  MIC: 325 µg/mL
Acinetobacter baumannii [10]
  MIC: 12.5 µg/mL
Pseudomonas aeruginosa [11]
  MIC: > 1000 µg/mL
Escherichia coli [12]
  MIC: 25 µg/mL
Acinetobacter baumannii [13]
  MIC: > 1000 µg/mL
